The record followed here is patent US20220023269A1, “Methods Of Treating Diabetes In Severe Insulin-Resistant Diabetic Subjects” (Balticgruppen Bio AB, priority 2018, published 2022).

Each structure is given as a SMILES string.

Series [1] deals with AMPK in primary mouse WT and hIAPPtg islets. As to the kind of experiment: AMPK activation in primary mouse WT and hIAPPtg islets. The following applies: 2.5, 5, 10 μM, 2 hours. The class given is cell-based. The protocol:
All cell lines were lysed in 0.1 M Tris-HCl, pH 6.8, 2% SDS, 10 mM sodium fluoride (SIGMA #S7920), 10 mM β-glycerophosphate (SIGMA #G6376), and 1 mM sodium vanadate (SIGMA #72060) and supernatant collected after 1 minute at 14,000 rpm. Islets (human and mouse) were lysed in 0.1 M Tris-HCl, pH 6.8, 2% SDS, protease inhibitor (Roche #04 693 124 001) and phosphatase inhibitor (Roche #04 906 837 001). Right calf muscle, heart, iWAT, and interscapular BAT was crushed in a pestle using liquid nitrogen and homogenised in ice cold RIPA buffer (150 mM sodium chloride (SIGMA #S7653), 1.0% NP40 (USB), 0.5% sodium deoxycholate (SIGMA #D6750), 0.1% SDS, 50 mM Tris pH 8.0, 20 mM sodium pyrophosphate (SIGMA #71515), 10 mM sodium fluoride, 10 mM β-glycerolphosphate, 1 mM sodium vanadate and protease inhibitor cocktail (Roche #04693124001), 1 tablet/10 ml lysis buffer). The supernatant was collected after 2 min at 14,000 rpm. This procedure was repeated until all fat was eliminated and the supernatant was clear, at 4° C. Samples were analysed on 4-15% polyacrylamide gels. Values were normalised toward AMPKα, β-Actin, GAPDH or the respective non-phosphorylated counterpart.
Table 3 contains origin of cell lines, growth conditions and settings for activation of AMPK via the test material. […]

Series [2] can be described thus: Pharmacokinetics in mice and rats (plasma, liver, brain). It is filed as in vivo. The following applies: rodents. The protocol:
Pharmacokinetics of the test material in C57BL/6JBomTac mice and NTac:SD rats were determined via UHPLC-ESI Triple Quad MSMS in plasma from non-fasted animals. The test material (40 mg/kg test material) was administered via oral gavage and 4-, 8-, 12- and 24-hours after administration blood was collected. Test material levels were determined in liver and brain from non-fasted Crl:CD (SD) rats administered the test material (40 mg/kg test material), once daily for 3 weeks, via oral gavage. The test material was extracted in acetonitrile and levels determined using UHPLC-ESI Triple Quad MSMS.

Series [3] concerns obese, diabetic hIAPPtg mice. Briefly: Diet switch in hIAPPtg mice: HFD 9 w then test material-HFD (2 mg/g) 7 w. It is filed as in vivo. The protocol: 10-11 weeks old male hIAPPtg; CBA mice and wild type littermates were fed HFD for 9 weeks. After 9 weeks mice were either sacrificed or randomised into two groups either continuing on HFD or switched to test material-HFD (2 mg/g) for an additional 7 weeks.
Food intake was measured weekly by giving each cage 200 g pellet. After one week, the amount of pellets consumed were calculated and adjusted according to the number of animals/cage. Body weight was measured weekly. Body composition was assessed using EchoMRI.
Islets amyloid was quantification was done on pancreatic tissues isolated from hIAPPtg mice on HFD for 16 weeks (n=7 mice/n=69 islets) and hIAPPtg mice on HFD for 9 weeks then switched to test material-HFD (2 mg/g) for 7 weeks (n=5 mice/n=48 islets). Isolated pancreases was direct frozen, sectioned, and amyloid content quantified by staining with Thioflavin-S as previously described (Reference 2). For ex vivo analyses, islets were isolated by collagenase digestion of the pancreas (Reference 1) and cultured in RPMI medium 1640 (GIBCO #11879-0) supplemented with 11.1 or 22.2 mM glucose (GIBCO #A24940-01), 1% fetal bovine serum (GIBCO #10500), 50 U; μg/ml Pen/Strep (Gibco #15140-122), 10 mM Hepes (Umeå University, Laboratory medicine), 1 mM sodium pyruvate (GIBCO #11360-039) and 0.1% 2-Mercaptoethanol (Sigma #M3148). 0, 2.5, 5.0, and 10 μM test material were added from day 0 of culture. For assessing the effect of autophagy inhibition, 3-Methyladenine (3-MA, Aldrich #M9281), 5 μM, was added from day 0 of culture in combination with test material, 5 μM. The control contained DMSO 1:2000. Medium and compounds were changed every second day. After 92 hours of treatment islets were embedded, sectioned and amyloid content quantified by staining with Thioflavin-S as previously described (Reference 2). A minimum of 3 independent experiments was evaluated.

Series [4] concerns Wistar rats. As to the kind of experiment: 6 months oral gavage in Wistar rats. It is filed as in vivo. The settings on record: 100, 300 and 600 mg/kg/day gavage, RD, vs vehicle. The protocol: 8-10 weeks old Wistar male and female rats were treated by oral gavage with vehicle or test material at 100, 300 or 600 mg/kg/day for 6 months.

Take `O=C(Nc1nc(=O)n(Cc2ccc(Cl)cc2)s1)c1ccc(Cl)cc1` [test material, 4-chloro-N-[2-[(4-chlorophenyl)methyl]-3-oxo-1,2,4-thiadiazol-5-yl]benzamide]: the pAMPKα result in series [1] is given as “directly increased pAMPKα”. Moreover, in series [2], the blood-brain barrier crossing entry is reported as “does not cross the blood-brain barrier”, the oral availability entry is on record as “orally available” and the plasma half-life result is “long”. Also, in series [3] (2 mg/g), the body fat entry is “induced body weight and body fat loss”; the body weight result is “induced body weight and body fat loss”. Also, the “amount of islet amyloid formed” value in series [3] (2 mg/g for 7 w, vs continued HFD) is listed as “significantly reduced”. Besides, in series [3] (2 mg/g, 6 w after the switch), the “established hyperglycemia (fasted blood glucose)” value was “reverted”, the “established hyperinsulinemia (fasted insulin)” value is on record as “reverted” and the “established insulin resistance (HOMA-IR)” value was “reverted”. In addition, the heart/brain weight result in series [4] was “did not show increased heart/brain weight”.
